Measured values from patent US7129239B2, “Purine compounds and uses thereof” (Pfizer Inc., priority 2002, dated 2006).

System: CB-1 receptor
Assay: CB-1 receptor binding assay ([3H]SR141716A displacement)
Details: rat or human protocol not specified
Description: The following assays were designed to detect compounds that inhibit the binding of [^3H] SR141716A (selective radiolabeled CB-1 ligand) and [^3H]
PelFreeze brains (available from Pel Freeze Biologicals, Rogers, Ark.) were cut up and placed in tissue preparation buffer (5 mM Tris HCl, pH=7.4 and 2 mM EDTA), polytroned at high speed and kept on ice for 15 minutes. The homogenate was then spun at 1,000×g for 5 minutes at 4° C. The supernatant was recovered and centrifuged at 100,000×G for 1 hour at 4° C. […] A protein assay was performed and 200 μl of tissue totaling 20 μg was added to the assay.
The test compounds were diluted in drug buffer (0.5% BSA, 10% DMSO and TME) and then 25 μl were added to a deep well polypropylene plate. [^3H] SR141716A was diluted in a ligand buffer (0.5% BSA plus TME) and 25 μl were added to the plate. A BCA protein assay was used to determine the appropriate tissue concentration and then 200 μl of rat brain tissue at the appropriate concentration was added to the plate. […] In the morning the filters were counted on a Wallac Betaplate™ counter (available from PerkinElmer Life Sciences™, Boston, Mass.). […]
The test compounds were diluted in drug buffer (0.5% BSA, 10% DMSO and TME) and then 25 μl were added to a deep well polypropylene plate. […] In the morning the filters were counted on a Wallac Betaplate™ counter (available from PerkinElmer Life Sciences™, Boston, Mass.).

Row | Compound | binding activity
1 | NC1(C(=O)[O-])CCN(c2ncnc3c2nc(-c2ccccc2Cl)n3-c2ccc(Cl)cc2)CC1.[K+] [Example 19A-2, 4-Amino-1-[9-(4-chlorophenyl)-8-(2-chlorophenyl)-9H-purin-6-yl]-piperidine-4-carboxylic Acid, Potassium Salt] | 1.2 nM
2 | O=C([O-])C1(Nc2ncnc3c2nc(-c2ccccc2Cl)n3-c2ccc(Cl)cc2)CCCC1.[K+] [Example 19A-1, 1-[9-(4-chlorophenyl)-8-(2-chlorophenyl)-9H-purin-6-ylamino]-cyclopentanecarboxylic Acid, Potassium Salt] | 2.8 nM
